The values below are quoted from earlier work in patent publication US10660869B2, “Lactate powder and method for the preparation thereof” (Purac Biochem B.V., priority 2012, dated 2020).

The conditions of the data set: 1000 mg of sample dissolved in 240 ml water.

As for `CC(O)C(=O)[O-].CC(O)C(=O)[O-].O.O.O.O.O.[Ca+2]` (stereo not shown) [PURACAL® PP/FCC, calcium lactate pentahydrate], the typical dissolution time is 25 s.
